{"source": "patent US20230372393A1", "about": "“METHODS FOR ALLOGENEIC HEMATOPOIETIC STEM CELL TRANSPLANTATION” (Orca Biosystems, Inc., priority 2020, published 2023)", "assay_type_in_all_cases": "in vivo, human", "key": {"[1]": {"system": "subjects with advanced hematologic malignancies undergoing myeloablative alloHCT", "assay": "Clinical study: acute GVHD (MAGIC criteria)", "description": "(§1) A clinical study was conducted in subjects with advanced hematologic malignancies undergoing myeloablative allogeneic hematopoietic cell transplantation (alloHCT).\n(§2) Personnel who identified subjects for the SOC cohort were blinded as to their clinical outcomes.\nAcute GVHD was staged and graded per MAGIC Standardization criteria.\nAcute GVHD: Acute GVHD (aGVHD) is a significant driver of morbidity and mortality associated with alloHCT, reducing the severity and incidence of aGVHD has the potential to greatly benefit graft recipients. Acute GVHD was staged and graded per Mount Sinai Acute GvHD International Consortium (MAGIC) Standardization criteria."}, "[2]": {"system": "subjects with advanced hematologic malignancies undergoing myeloablative alloHCT", "assay": "Clinical study: chronic GVHD (NIH criteria)", "conditions": "serum tacrolimus trough higher versus lower than 4 ng/ml, FIG. 9B", "description": "as §1, §2"}, "[3]": {"system": "subjects with advanced hematologic malignancies undergoing myeloablative alloHCT", "assay": "Clinical study: disease relapse and disease status", "conditions": "tacrolimus-only relative to sirolimus-only patients", "description": "as §1, §2"}, "[4]": {"system": "subjects with advanced hematologic malignancies undergoing myeloablative alloHCT", "assay": "Clinical study: GVHD and relapse-free survival, cGVHD-free survival", "conditions": "tacrolimus-only relative to sirolimus-only patients, FIG. 7G", "text": "GVHD and relapse-free survival is a composite readout that can refer to survival without relapse or Grade ≥3 acute or extensive chronic GVHD."}, "[5]": {"system": "subjects with advanced hematologic malignancies undergoing myeloablative alloHCT", "assay": "Clinical study: overall survival", "conditions": "tacrolimus-only relative to sirolimus-only patients, FIG. 7H", "text": "Overall survival: OS was defined as the time from the date of transplant to the date of death from any cause or, for surviving patients, to the date of last follow-up."}, "[6]": {"system": "CD3+ cells of donor origin", "assay": "Donor T cell chimerism versus tacrolimus trough level", "conditions": "lower average trough tacrolimus level through day +30, p=0.0011, FIG. 9H", "description": "Peripheral blood samples from subjects were also analyzed for chimerism as part of the follow-up procedures. The blood samples were processed to select for various cell populations using standard markers for each cell population. Blood was drawn from subjects that received the composition of the disclosure on day +28, day +56, day +100, day +180 and day +365 post-transplant, and the frequency of peripheral blood cells were quantified by flow cytometry (Markers used for analysis are described in Table 16).\nWithout wishing to be bound by a theory, it can be hypothesized that an improved chimerism due to higher tacrolimus levels may have led to the improved GVHD and survival outcomes in patients."}}}
{"smiles": "C=CC[C@@H]1/C=C(\\C)C[C@H](C)C[C@H](OC)[C@H]2O[C@@](O)(C(=O)C(=O)N3CCCC[C@H]3C(=O)O[C@H](/C(C)=C/[C@@H]3CC[C@@H](O)[C@H](OC)C3)[C@H](C)[C@@H](O)CC1=O)[C@H](C)C[C@@H]2OC", "note": "[tacrolimus]", "values": [{"measurement": "GVHD rates", "setting": "[1]; average serum tacrolimus trough level higher than 4 ng/ml for the first 30 days post-transplant, FIG. 8A", "value": "lower GVHD rates"}, {"measurement": "GVHD rates", "setting": "[1]; same conditioning regimen (Bu/Cy or TBI/BFT), trough higher versus lower than 4 ng/ml, FIGS. 9C-G", "value": "improvement in GVHD rates"}, {"measurement": "Acute GVHD rates", "setting": "[1]; serum tacrolimus trough higher versus lower than 4 ng/ml, FIG. 9A", "value": "significant improvement"}, {"measurement": "GVHD rates", "setting": "[1]; tacrolimus only versus sirolimus only prophylaxis, FIGS. 7A-C", "value": "higher GVHD rates"}, {"measurement": "chronic GVHD rates", "setting": "[2]", "value": "improvements"}, {"measurement": "survival (FIG. 7E)", "setting": "[3]", "value": "improved"}, {"measurement": "relapse rates", "setting": "[3]; FIG. 7F", "value": "improved"}, {"measurement": "GRFS rates", "setting": "[4]", "value": "improved"}, {"measurement": "overall survival rates", "setting": "[5]", "value": "improved"}, {"measurement": "engraftment of donor T cells (T cell chimerism)", "setting": "[6]", "value": "increased engraftment of donor T cells"}]}
